Experimental data reported in PMC6173509, “C-3- and C-4-Substituted Bicyclic Coumarin Sulfamates as Potent Steroid Sulfatase Inhibitors” (ACS Omega, 2018).

Assays:
steroid sulfatase (STS) [1] = target: T1, steroid sulfatase (STS) (Homo sapiens, UniProt P08842); test: STS inhibition in intact MCF-7 breast cancer cells; format: cell-based; set-up: endogenous in cells; host or cells: MCF-7 breast cancer cells; conditions: for inhibition at 0.01 µM: MCF7, read-out: % Inhibition of STS Activity in Intact MCF-7 Breast Cancer Cells at 0.01 μM; for inhibition at 0.1 µM: MCF7, read-out: % Inhibition of STS Activity in Intact MCF-7 Breast Cancer Cells at 0.1 μM; for inhibition at 1 µM: MCF7, read-out: % Inhibition of STS Activity in Intact MCF-7 Breast Cancer Cells at 1 μM; for inhibition at 10 µM: MCF7, read-out: % Inhibition of STS Activity in Intact MCF-7 Breast Cancer Cells at 10 μM; for IC50: 3 nM E1S
T1 sequence (P08842 22-583): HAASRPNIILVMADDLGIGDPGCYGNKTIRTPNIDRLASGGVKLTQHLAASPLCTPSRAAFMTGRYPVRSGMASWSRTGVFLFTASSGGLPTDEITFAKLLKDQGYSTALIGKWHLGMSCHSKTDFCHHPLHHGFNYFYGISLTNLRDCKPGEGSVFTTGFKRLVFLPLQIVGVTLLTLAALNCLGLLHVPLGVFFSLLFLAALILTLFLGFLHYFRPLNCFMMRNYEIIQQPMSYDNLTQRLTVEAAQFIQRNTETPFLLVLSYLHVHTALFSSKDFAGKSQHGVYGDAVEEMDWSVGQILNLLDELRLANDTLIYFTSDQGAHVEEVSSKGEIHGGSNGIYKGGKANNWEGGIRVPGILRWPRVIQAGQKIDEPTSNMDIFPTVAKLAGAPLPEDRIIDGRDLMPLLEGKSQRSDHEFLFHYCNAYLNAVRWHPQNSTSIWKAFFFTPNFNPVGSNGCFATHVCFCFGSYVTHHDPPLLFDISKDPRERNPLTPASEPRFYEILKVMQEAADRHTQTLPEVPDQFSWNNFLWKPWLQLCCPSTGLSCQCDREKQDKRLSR

steroid sulfatase (STS) [2] = target: T1, steroid sulfatase (STS); test: STS inhibition in placental microsomes; format: biochemical; set-up: a placental microsomal preparation from a sulfatase-positive human placenta from a normal term pregnancy; from tissue; host or cells: human placenta (microsomal preparation); conditions: 20 μM E1S; for inhibition at 0.01 µM: 0.01 μM inhibitor; for inhibition at 0.1 µM: 0.1 μM inhibitor; for inhibition at 1 µM: 1 μM inhibitor; for inhibition at 10 µM: 10 μM inhibitor

| SMILES | inhibition at 0.01 µM (steroid sulfatase (STS) [1]) | inhibition at 0.1 µM (steroid sulfatase (STS) [1]) | inhibition at 1 µM (steroid sulfatase (STS) [1]) | inhibition at 10 µM (steroid sulfatase (STS) [1]) | inhibition at 0.01 µM (steroid sulfatase (STS) [2]) | inhibition at 0.1 µM (steroid sulfatase (STS) [2]) | inhibition at 1 µM (steroid sulfatase (STS) [2]) | inhibition at 10 µM (steroid sulfatase (STS) [2]) | IC50 (steroid sulfatase (STS) [2]) | IC50 (steroid sulfatase (STS) [1]) |
| --- | --- | --- | --- | --- | --- | --- | --- | --- | --- | --- |
| CCCCCCCCCc1cc(=O)oc2cc(OS(N)(=O)=O)ccc12 [compound 14, 4-Nonylcoumarin-7-O-sulfamate] | 90% | 96% | 98% | 100% | 18% | 79% | 97% | 99% | 60 nM |  |
| CCCCCCCCCCc1cc(=O)oc2cc(OS(N)(=O)=O)ccc12 [compound 15, 4-Decylcoumarin-7-O-sulfamate] | 86% | 95% | 98% | 100% | 17% | 74% | 96% | 99% | 60 nM |  |
| CCCCCCCCCCCCc1cc(=O)oc2cc(OS(N)(=O)=O)ccc12 [compound 17, 4-Dodecylcoumarin-7-O-sulfamate] | 22% | 67% | 95% | 98% | 17% | 68% | 89% | 96% | 45 nM |  |
| CCCCCCCCCCCCCc1cc(=O)oc2cc(OS(N)(=O)=O)ccc12 [compound 18, 4-Tridecylcoumarin-7-O-sulfamate] | 72% | 96% |  |  | 7% | 55% | 80% | 91% | 85 nM | 3.2 nM |
| NS(=O)(=O)Oc1ccc2c(CCl)cc(=O)oc2c1 [compound 21, 4-Chloromethylcoumarin-7-O-sulfamate] | 6% | 33% | 82% | 92% | 10% | 19% | 59% | 94% | 600 nM | 220 nM |
| NS(=O)(=O)Oc1ccc2c(-c3ccccc3)cc(=O)oc2c1 [compound 22, 4-Phenylcoumarin-7-O-sulfamate] |  | 36% | 79% | 87% |  |  |  |  | 200 nM |  |
| NS(=O)(=O)Oc1ccc2c(Cc3ccccc3)cc(=O)oc2c1 [compound 23, 4-Benzylcoumarin-7-O-sulfamate] | 8% | 55% | 70% | 84% | 2% | 61% | 96% | 99% | 64 nM | 75 nM |
| NS(=O)(=O)Oc1ccc2c(CCc3ccccc3)cc(=O)oc2c1 [compound 24, 4-(2-Phenylethyl)coumarin-7-O-sulfamate] | 39% | 84% | 95% | 98% | 8% | 53% | 93% | 98% | 82 nM | 18 nM |
| CCc1ccc(-c2cc(=O)oc3cc(OS(N)(=O)=O)ccc23)cc1 [compound 25, 4-(4-Ethylphenyl)coumarin-7-O-sulfamate] | 6% | 24% | 73% | 84% |  |  | 27% | 85% | 2600 nM | 350 nM |
| NS(=O)(=O)Oc1ccc2c(C3CCCCC3)cc(=O)oc2c1 [compound 26, 4-Cyclohexylcoumarin-7-O-sulfamate] | 37% | 72% | 80% | 93% | 9% | 69% | 94% | 99% | 42 nM | 24 nM |
| CCCCCc1c(C)c2ccc(OS(N)(=O)=O)cc2oc1=O [compound 28, 4-Methyl-3-pentylcoumarin-7-O-sulfamate] |  | 97% | 99% | 100% | 41% | 94% | 99% | 100% | 12 nM |  |
| CCCCCCc1c(C)c2ccc(OS(N)(=O)=O)cc2oc1=O [compound 29, 3-Hexyl-4-methylcoumarin-7-O-sulfamate] |  | 99% | 100% | 100% | 13% | 88% | 99% | 99% |  |  |
| CCCCCCCc1c(C)c2ccc(OS(N)(=O)=O)cc2oc1=O [compound 30, 3-Heptyl-4-methylcoumarin-7-O-sulfamate] |  | 99% | 100% | 100% | 23% | 65% | 97% | 99% |  |  |
| CCCCCCCCc1c(C)c2ccc(OS(N)(=O)=O)cc2oc1=O [compound 31, 4-Methyl-3-octylcoumarin-7-O-sulfamate] |  | 99% | 100% | 100% | 21% | 71% | 98% | 99% |  |  |
| CCCCCCCCCc1c(C)c2ccc(OS(N)(=O)=O)cc2oc1=O [compound 32, 4-Methyl-3-nonylcoumarin-7-O-sulfamate] | 57% | 96% | 99% | 99% | 21% | 85% | 97% | 98% |  | ~10 nM |
| CCCCCCCCCCc1c(C)c2ccc(OS(N)(=O)=O)cc2oc1=O [compound 33, 3-Decyl-4-methylcoumarin-7-O-sulfamate] | 80% | 97% | 99% | 97% | 3% | 33% | 79% | 94% | 250 nM | < 10 nM |
| Cc1c(-c2ccccc2)c(=O)oc2cc(OS(N)(=O)=O)ccc12 [compound 40, 4-Methyl-3-phenylcoumarin-7-O-sulfamate] | 32% | 75% |  |  | 8% | 65% | 95% | 99% | 54 nM | 25 nM |
| Cc1c(Cc2ccccc2)c(=O)oc2cc(OS(N)(=O)=O)ccc12 [compound 41, 3-Benzyl-4-methylcoumarin-7-O-sulfamate] | 85% | 91% | 94% | 97% | 53% | 94% | 99% |  |  |  |
